Measurements published in US20070244140A1, “Anilino-pyrimidine phenyl and benzothiophene analogs” (Wyeth, priority 2006, published 2007).

O=S(=O)(NCCCO)c1ccc(Nc2nccc(-c3ccc(C(F)(F)F)cc3)n2)cc1 [Exemplary Compound 68, N-(3-hydroxypropyl)-4-({4-[4-(trifluoromethyl)phenyl]pyrimidin-2-yl}amino)-benzenesulfonamide]
melting point: 204 to 205 °C

O=S(=O)(c1ccc(Nc2nccc(-c3ccc(C(F)(F)F)cc3)n2)cc1)N1CCOCC1 [Exemplary Compound 39, N-[4-(Morpholin-4-ylsulfonyl)phenyl]-4-[4-(trifluoromethyl)phenyl]pyrimidin-2-amine]
melting point: 240 to 241 °C
